The values that follow come from ChEMBL document CHEMBL1137798, “Evaluation of natural products as inhibitors of human immunodeficiency virus type 1 (HIV-1) reverse transcriptase” (J Nat Prod, 1991).

For orientation: IC50 means the point on the concentration scale where inhibition reaches its midpoint.

Where a name gives a salt, the structure may show the parent alone.

In the assay the target is Human immunodeficiency virus type 1 reverse transcriptase (Human immunodeficiency virus 1, UniProt Q72547). The conditions noted are these: read-out: IC50 (converted).
As to `C=C(C)[C@@H]1CC[C@]2(CO)CC[C@]3(C)[C@H](CC[C@@H]4[C@@]5(C)CC[C@H](O)C(C)(C)[C@@H]5CC[C@]43C)[C@@H]12` [BETULIN], the IC50 was more than 452 µM.
With `COc1cc2c(cc1O)C[C@H]1c3c(cc(O)c(OC)c3-2)CCN1C` [BOLDINE] the figure was more than 611 µM; with `COC(=O)[C@@]12OC[C@]34[C@H]([C@@H](O)[C@@H]1O)[C@@]1(C)CC(=O)C(O)=C(C)[C@@H]1C[C@H]3OC(=O)[C@H](OC(=O)/C=C(\C)C(C)C)[C@@H]24` [BRUCEANTIN], more than 365 µM.
With `COc1cc2c(cc1OC)[C@@]13CCN4CC5=CCO[C@H]6CC(=O)N2[C@H]1[C@H]6[C@H]5C[C@H]43` [BRUCINE] the figure was more than 507 µM; with `CC[C@@]1(O)C(=O)OCc2c1cc1n(c2=O)Cc2cc3ccccc3nc2-1` [CAMPTOTHECIN], more than 574 µM.
With `COc1ccc2c(c1OC)C[N+]1(C)CCc3cc4c(cc3C1C2)OCO4` (stereo not drawn) [CANADINE METHCHLORIDE] the figure was more than 513 µM; with `C[C@H]1/C(=C/C(=O)OCCN(C)C)CC[C@H]2[C@H]1C(=O)C[C@H]1C(C)(C)[C@@H](OS(=O)(=O)O)CC[C@]21C` [CASSAINE SULFATE], more than 412 µM.
Regarding `CCC1=C[C@@H]2CN3CCc4c([nH]c5ccccc45)[C@](C(=O)OC)(C2)[C@@H]13` [CATHARANTHINE HYDROCHLORIDE], the IC50 is more than 536 µM.
Regarding `COc1ccc2c(c[n+](C)c3c4cc5c(cc4ccc23)OCO5)c1OC` [CHELERYTHRINE CHLORIDE], the IC50 is less than 521 µM.
With `CN1Cc2c(ccc3c2OCO3)[C@@H]2[C@H]1c1cc3c(cc1C[C@@H]2O)OCO3` [CHELIDONINE] the figure was less than 566 µM; with `C=C[C@H]1C[N@@]2CC[C@H]1C[C@@H]2[C@@H](O)c1ccnc2ccccc12` [CINCHONINE], more than 679 µM.
`COc1cc2c(c(OC)c1OC)-c1ccc(OC)c(=O)cc1[C@@H](NC(C)=O)CC2` [COLCHICINE]: the IC50 is more than 501 µM.
With `COc1cc2c(cc1O)-c1cc3ccc(OC)c(OC)c3c[n+]1CC2` [COLUMBAMINE IODIDE] the figure was 125 µM; with `CC[C@]12CCc3[nH]c4ccccc4c3CCN(C[C@H]3O[C@H]31)C2` [CONOFLORINE], more than 675 µM.
In the case of `CC[C@H]1C[C@@H]2CN3CCc4c([nH]c5cc(OC)c(OC)cc45)[C@](C(=O)OC)(C2)[C@H]13` [CONOPHARYNGINE] it was more than 502 µM; in that of `CC[C@@H]1CN2CCc3c([nH]c4ccccc34)[C@@H]2C[C@@H]1/C(=C\OC)C(=O)OC` [CORYNANRHEIDINE], more than 543 µM; in that of `COC(=O)[C@H]1[C@H]2C[C@H]3c4[nH]c5ccccc5c4CCN3C[C@@H]2CC[C@@H]1O` [CORYNANTHEINE], more than 564 µM.
On to `COc1cccc2c1C(=O)c1c(O)c3c(c(O)c1C2=O)C[C@@](O)(C(C)=O)C[C@@H]3O[C@H]1C[C@H](N)[C@H](O)[C@H](C)O1` [DAUNORUBICIN], for which the 50% inhibitory concentration (IC50) was 237 µM.
In the case of `COC(=O)[C@@H]1[C@@H](OC)[C@H](OC(=O)c2cc(OC)c(OC)c(OC)c2)C=C2CN3CCc4c([nH]c5ccccc45)[C@@H]3C[C@@H]21` [DESERPIDEINE HYDROCHLORIDE] it was more than 326 µM; in that of `COC(=O)[C@H]1[C@H]2C[C@@H]3c4[nH]c5ccccc5c4CCN3C[C@H]2C[C@@H](OC(=O)c2cc(OC)c(OC)c(OC)c2)[C@@H]1OC` [DESERPIDINE], more than 346 µM.
In the case of `COc1cc2c(c3c1c(=O)c1ccccc1n3C)CCC(C)(C)O2` [DIHYDROACRONYCINE] it was more than 618 µM.
Regarding `COc1ccc2c(c1OC)CN1CCc3cc4c(cc3C1=C2)OCO4` [DIHYDROBERBERINE], the IC50 was more than 593 µM.
As to `O=c1oc2c(O)c(O)cc3c(=O)oc4c(O)c(O)cc1c4c23` [ELLAGIC ACID], the IC50 is less than 496 µM.
Consider `Cc1c2ccncc2c(C)c2c1[nH]c1ccccc12` [ELLIPTECINE], for which the IC50 was less than 609 µM.
With `CN[C@@H](C)[C@H](O)c1ccccc1` [EPHEDRINE SULFATE] the figure was more than 933 µM.
Turning to `O=c1ccc2cc(O[C@@H]3O[C@H](CO)[C@@H](O)[C@H](O)[C@H]3O)c(O)cc2o1` [ESCULIN], the IC50 was more than 588 µM.
With `C/C=C/C=C1\C=Cc2c(C(=O)OC)coc(=O)c21` [FULVOPLUMIERIN] the figure was 184 µM.
With `COc1cc(O)c2c(=O)cc(-c3ccc(O)cc3)oc2c1` [GENKWANIN] the figure was more than 704 µM; with `CC(C)=CCC[C@](C)(O[C@@H]1O[C@H](CO[C@@H]2O[C@H](CO)[C@@H](O)[C@H](O)[C@H]2O)[C@@H](O)[C@H](O)[C@H]1O)[C@H]1CC[C@]2(C)[C@@H]1[C@H](O)C[C@@H]1[C@@]3(C)CC[C@H](O[C@@H]4O[C@H](CO)[C@@H](O)[C@H](O)[C@H]4O[C@@H]4O[C@H](CO)[C@@H](O)[C@H](O)[C@H]4O)C(C)(C)[C@@H]3CC[C@]12C` [GINSENOSIDE RB1], more than 180 µM; with `CC(C)=CCC[C@](C)(O[C@@H]1O[C@H](CO)[C@@H](O)[C@H](O)[C@H]1O)[C@H]1CC[C@]2(C)[C@@H]1[C@H](O)C[C@@H]1[C@@]3(C)CC[C@H](O)C(C)(C)[C@@H]3[C@@H](O[C@@H]3O[C@H](CO)[C@@H](O)[C@H](O)[C@H]3O[C@@H]3O[C@@H](C)[C@H](O)[C@@H](O)[C@H]3O)C[C@]12C` [GINSENOSIDE RE], more than 211 µM.
With `COC(=O)C[C@](O)(CCC(C)(C)O)C(=O)O[C@@H]1C(OC)=C[C@]23CCCN2CCc2cc4c(cc2[C@H]13)OCO4` [HARRINGTONINE] the figure was more than 376 µM; with `COc1ccc2cc1Oc1ccc(cc1)C[C@H]1c3cc(c(OC)cc3CCN1C)Oc1c(OC)c(OC)c(OC)c3c1[C@H](C2)N(C)CC3` [HERNANDEZINE], more than 306 µM.
As to `COc1ccc2c(c1OC)C(=O)O[C@@H]2[C@H]1c2cc3c(cc2CCN1C)OCO3` [HYDRASTINE], the 50% inhibitory concentration (IC50) was more than 522 µM.
Regarding `CC(C)[C@](O)(C(=O)OCC1=CC[N+]2([O-])CC[C@@H](O)[C@@H]12)[C@H](C)O` (stereo partly drawn) [INDICINE N-OXIDE], the concentration for half-maximal inhibition (IC50) was more than 634 µM.
In the case of `Cn1cncc1C[C@H]1COC(=O)[C@@H]1[C@@H](O)c1ccccc1` [ISOPILOSINE] it was more than 698 µM; in that of `COC(=O)[C@H]1[C@H]2C[C@@H]3c4[nH]c5ccccc5c4CCN3C[C@H]2C[C@@H](O)[C@@H]1OC(=O)c1cc(OC)c(OC)c(OC)c1` [ISORAUNESCINE], more than 354 µM; in that of `COC(=O)CC1(O)C=CC(=O)C=C1` [JACARANONE], more than 1100 µM.
With `COc1cc2c(cc1O)CC[n+]1cc3c(OC)c(OC)ccc3cc1-2` [JATRORRHIZINE CHLORIDE] the figure was 190 µM; with `O=c1c(O)c(-c2ccc(O)cc2)oc2cc(O)cc(O)c12` [KAEMPFEROL], less than 524 µM; with `COc1c2occc2c(OC)c2c(=O)cc(C)oc12` [KHELLIN], more than 769 µM.
In the case of `C/C=C(/C)C(=O)O[C@H]1CCN2CC=C(COC(=O)[C@](O)([C@H](C)OC)C(C)(C)O)[C@H]12` [LASIOCARPINE] it was more than 486 µM; in that of `O=C1CCC[C@H]2[C@@H]3CCCN4CCC[C@H](CN12)[C@@H]34` [LEONTINE], more than 805 µM.
Consider `CC1(C)O[C@H]2CC(=O)OC[C@]23[C@H]2CC[C@@]4(C)[C@H](c5ccoc5)OC(=O)[C@H]5O[C@]54[C@]2(C)C(=O)C[C@@H]13` [LIMONIN], for which the IC50 was more than 425 µM.
